Results from patent US7041131B2, “Bioengineered vascular graft support prostheses” (Organogenesis, Inc., priority 1998, dated 2006).

Legend:
[1] = system: tube supported vein grafts; test: Isometric tension studies on rings of tube supported vein grafts; parameters: species or system New Zealand male white rabbits; conditions: for EC50: Oryctolagus cuniculus, 672 h, read-out: Sensitivity, -log10(EC50) (converted)
Procedure: (§1) Twenty-nine New Zealand male white rabbits underwent interposition bypass grafting of the right common carotid artery using the reversed ipsilateral jugular vein. In the experimental group (n=15), once the proximal anastomosis was performed, the vein was passed through a collagen tube having dimensions of 4 mm in diameter and 35 to 40 mm in length and the distal anastomosis was then completed. Leaks were repaired and the collagen tube was fashioned to completely cover the vein graft, including both anastomoses. Control animals (n=14) were treated identically but without tube support. One intraoperative death resulted from an unrecognized leak in the mid-segment of a vein graft in the experimental group. Otherwise, there were no other significant complications such as infection or bleeding in either group. […] Postoperatively, the flow rate and intraluminal pressure in vein grafts were measured on either day 3 or 28 (n=5 per group). Vein grafts were harvested on day 3 for assessment of tyrosine phosphorylation by Western blot analysis (n=4 per group), and on day 28 for morphometric measurement (n=5 per group), scanning and transmission electron microscopy (n=5 per group) and isometric tension studies (n=5 per group). On the day of harvest, animals were anesthetized and subsequently sacrificed with an intravenous overdose of barbiturates.
(§2) Vein grafts were sectioned into four 5 mm rings. In the tube supported group, the collagen tube was carefully dissected off and removed to allow unimpeded vessel contraction and relaxation. Each ring was immediately mounted between two stainless steel hooks in 5 ml organ baths containing oxygenated Krebs solution (122 mM NaCl, 4.7 mM KCl, 1 2 mM MgCl2, 2.5 mM CaCl2, 15.4 mM NaHCO3, 1.2 mM KH2PO4 and 5.5 mM glucose, maintained at 37° C. and oxygenated with 95% O2 and 5% CO2), as previously described with some modifications. In brief, following equilibration, the resting tension was adjusted in increments from 0.5 to 1.25 gms and the maximal response to a modified oxygenated Krebs solution containing 60 mM KCl, 66.7 mM NaCl, 1.2 mM MgCl2, 2.5 mM CaCl2, 15.4 mM NaHCO3, 1.2 mM KH2PO4 and 5.5 mM glucose was measured to establish a length-tension relationship. Cumulative dose response curves to the contractile agonists bradykinin (10^−9 to 10^−5 M), norepinephrine (10^−9 to 10^−4 M), and serotonin (10^−9 to 10^−4 M) were performed. Relaxation responses to acetylcholine (10^−8 to 10^−4 M), an endothelium dependent agonist, and nitroprusside (10^−8 to 10^−4 M), an endothelium independent agonist, were assessed on rings precontracted with norepinephrine, at the concentration which produced 80% of maximal contraction. All rings were allowed to re-equilibrate for a minimum of 30 minutes between each experimental run and the same sequence of agonist testing was maintained for all experiments. (All chemicals were obtained from Sigma Chemical Co. (St Louis, Mo.)).
(§3) The concentration for the half maximal response (EC50) was calculated by logistic analysis and the sensitivity is defined as -log10(EC50). In each vein graft, the sensitivity was determined for each vessel ring (4 rings per vein graft) and the mean was taken as the value for that vein graft. Values shown are the mean±s.e.m (n=5 per group). Statistical differences between the tube supported vein grafts and control vein grafts were compared using the unpaired Student's t-test.

control vein grafts = test: Isometric tension studies on rings of control vein grafts; parameters: species or system New Zealand male white rabbits; conditions: for Sensitivity, -log10(EC50) / EC50: day 28 control vein grafts without tube support, mean±s.e.m, n=5; for EC50: Oryctolagus cuniculus, 672 h, read-out: Sensitivity, -log10(EC50) (converted)
Procedure: as §1, §2, §3

[2] = day 28 tube supported vein grafts, tube removed, mean±s.e.m, n=5

`[Cl-].[K+]` [KCl] showed a Contractile force ([1]; 60 mM KCl, tube supported vein grafts) of 300 ± 46 mg and a Contractile force (control vein grafts; 60 mM KCl, control vein grafts) of 280 ± 47 mg.

In the case of nitroprusside, the “Sensitivity, -log10(EC50)” value [1, 2] is reported as 6.46 ± 0.12 and the “Sensitivity, -log10(EC50)” value (control vein grafts) is reported as 6.73 ± 0.19.

`NC[C@H](O)c1ccc(O)c(O)c1` [Norepinephrine, norepinephrine] was tested, and the EC50 [1, 2] was 1100 nM and the EC50 (control vein grafts) was 1070 nM.

`CC(=O)OCC[N+](C)(C)C` [Acetylcholine, acetylcholine] was tested, and the EC50 [1, 2] was 120000 nM, the Maximal relaxation ([1]; tube supported vein graft rings precontracted with norepinephrine) was 64 % of precontracted tension and the “Sensitivity, -log10(EC50)” value (control vein grafts) was “no response”.

Compound `NCCc1c[nH]c2ccc(O)cc12` [Serotonin, serotonin] has an EC50 [1, 2] of 407 nM and an EC50 (control vein grafts) of 525 nM.
